From patent publication US11433038B2, “High concentration medicant solutions for treating neurological disorders” (Cerebral Therapeutics, Inc., priority 2017, dated 2022)
Entries after “also recorded” stand apart in the source; their conditions may differ. Where a name gives a salt, the structure may show the parent alone.

How the values were obtained:
[1] = system: human subjects; assay: subject-reported effects during direct brain (CSF) administration of valproate; format: in vivo
[2] = pH titration of sodium valproate solutions (5 mL) with 25 mM HCl (FIG. 7)
[3] = pH of aqueous sodium valproate solutions; format: physicochemical
[4] = reported solubility limit; cited from earlier work
[5] = valproate concentration in blood serum and cerebrospinal fluid after administration was stopped (FIG. 1-3); format: in vivo; details: human subjects, FIG. 2
[6] = solubility of sodium valproate in water; details: early emulsion experiments
[7] = on the order of; cited from earlier work
[8] = 150 mg/mL sodium valproate, 5 mL, 25 mM HCl
[9] = 0.4% sodium citrate (13.6 mM) in 150 mg/mL (0.9 M) sodium valproate

SMILES: CCCC(CCC)C(=O)[O-].[Na+] [sodium valproate]
- perception of body temperature ([1]; human subjects receiving valproate to the brain): always cold
- nausea at therapeutic level ([1]; human subjects, on reaching a therapeutic level): feeling of nauseous which seems to pass over time
- volume of 25 mM HCl at which the pH hits the pKa ([2]; 10 mM sodium valproate, 5 mL): 0.6 mL
- pH at start of titration ([2]; 10 mM sodium valproate, 5 mL, before acid): 6.6
- pH after 0.6 mL of acid ([2]; 10 mM sodium valproate, 5 mL, 0.6 mL of 25 mM HCl): 4.81
- pH after 0.7 mL of acid ([2]; 10 mM sodium valproate, 5 mL, 0.7 mL of 25 mM HCl): 4.74
- pH after 1 mL of acid ([2]; 10 mM sodium valproate, 5 mL, 1 mL of 25 mM HCl added in 0.1 mL increments): 4.36
- change in pH on titration ([2]; 150 mg/mL sodium valproate): minimal
- pH at last point of titration curve [2, 8]: 7.30
- pH at second-to-last point of titration curve [2, 8]: 7.34
- buffering of concentrated solutions ([2]; concentrated solutions of sodium valproate): strongly buffer solutions at pH>8
- pH of solution ([3]; 150 mg/mL sodium valproate in water): approximately 8.3
- pH of solution ([3]; more concentrated solutions (>350 mg/mL)): above 9
- solubility limits in water, commonly reported [4]: 50 to 100 mg/mL
- concentration in cerebrospinal fluid over time [5]: drops quickly

SMILES: CCCC(CCC)C(=O)O [valproic acid]
- behaviour of emulsified droplets of pure valproic acid (liquid) in water [6]: dissolving into the water

SMILES: O=C(O)CC(O)(CC(=O)O)C(=O)O [sodium citrate]
- effect of sodium citrate on buffer capacity [2, 9]: does not provide any measurable increase in buffering capacity above pH 7; also recorded: virtually no effect
- effect of sodium citrate on initial pH [2, 9]: nor does it significantly change the initial pH

SMILES: NCC(CC(=O)O)c1ccc(Cl)cc1 (stereo not shown) [Baclofen]
- half-life [7]: five
